From patent publication US12097192B2 (Corcept Therapeutics Incorporated, priority 2019, dated 2024)

Columns and labels:
[1] = system: Cushing syndrome patients; conditions: patients treated with either mifepristone or metyrapone; cited from earlier work
[2] = system: Cushing syndrome patients; assay: Adverse events with other medical therapies for Cushing syndrome; format: in vivo, human; conditions: one patient treated previously with mifepristone

SMILES | drug induced hypokalemia [1] | adverse event on previous therapy [2]
CC(C)(C(=O)c1cccnc1)c1cccnc1 [metyrapone] | commonly seen adverse event | –
CC#C[C@]1(O)CC[C@H]2[C@@H]3CCC4=CC(=O)CCC4=C3[C@@H](c3ccc(N(C)C)cc3)C[C@@]21C [mifepristone] | – | developed endometrial hypertrophy
